Here are results for nine molecules from ChEMBL document CHEMBL1909046, “DrugMatrix in vitro pharmacology data”.

In assay [1] the target is T1, Alpha-1A adrenergic receptor (Rattus norvegicus, UniProt P43140).
T1 sequence (P43140 whole entry): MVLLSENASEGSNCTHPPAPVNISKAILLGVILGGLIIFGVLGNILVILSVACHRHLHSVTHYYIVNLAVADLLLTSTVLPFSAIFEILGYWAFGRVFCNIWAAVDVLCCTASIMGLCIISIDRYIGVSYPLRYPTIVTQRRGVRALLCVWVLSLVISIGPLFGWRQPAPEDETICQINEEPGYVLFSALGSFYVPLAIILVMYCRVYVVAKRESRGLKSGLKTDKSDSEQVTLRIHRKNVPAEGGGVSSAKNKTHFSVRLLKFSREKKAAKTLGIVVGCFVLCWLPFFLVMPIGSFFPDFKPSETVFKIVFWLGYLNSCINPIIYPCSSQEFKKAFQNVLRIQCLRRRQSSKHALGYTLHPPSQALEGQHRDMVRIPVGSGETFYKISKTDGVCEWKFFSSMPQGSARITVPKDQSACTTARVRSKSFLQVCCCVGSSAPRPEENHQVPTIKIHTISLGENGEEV
As to the kind of experiment: DRUGMATRIX: Alpha-1A adrenergic receptor radioligand binding (ligand: prazosin). Format: cell membranes, Wistar, Submaxillary gland, Membrane. Particulars: Not Active = under 50% inhibition at 10 µM.

The target in assay [2] is Beta-1 adrenergic receptor (Homo sapiens, UniProt P08588). As to the kind of experiment: DRUGMATRIX: Adrenergic beta1 radioligand binding (ligand: [125I] Cyanopindolol). The class given is cell membranes, CHO-K1, Membrane. Particulars: cho-k1; Not Active = under 50% inhibition at 10 µM.
Assay [3] addresses 5-hydroxytryptamine receptor 2B (Homo sapiens, UniProt P41595). The class given is cell membranes, CHO-K1, Membrane.
In assay [4] the target is Prostaglandin G/H synthase 1 (Homo sapiens, UniProt P23219). Description: biochemical. The class given is tissue-based, Platelet.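 Note: inhibition of COX-1 enzyme activity, with arachidonic acid supplied as substrate; in other assays of this panel Not Active means under 50% inhibition at 10 µM.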
Another assay has as its target Glycine receptor (Rattus norvegicus, UniProt P22771+P24524+P07727+P20781). The class given is cell membranes, Wistar, Spinal cord, Membrane. Note: in other assays of this panel Not Active means under 50% inhibition at 10 µM.
A short description of assay [5]: DRUGMATRIX: Interleukin IL-1 radioligand binding (ligand: [125I] interleukin 1beta). Format: cell membranes, Membrane. Particulars: nih3t3; Not Active = under 50% inhibition at 10 µM.
The target in assay [6] is T2, Nitric oxide synthase, inducible (Mus musculus, UniProt P29477).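 Note: inhibition of iNOS enzyme activity measured with L-arginine as substrate; in other assays of this panel Not Active means under 50% inhibition at 10 µM.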
T2 sequence (P29477 whole entry): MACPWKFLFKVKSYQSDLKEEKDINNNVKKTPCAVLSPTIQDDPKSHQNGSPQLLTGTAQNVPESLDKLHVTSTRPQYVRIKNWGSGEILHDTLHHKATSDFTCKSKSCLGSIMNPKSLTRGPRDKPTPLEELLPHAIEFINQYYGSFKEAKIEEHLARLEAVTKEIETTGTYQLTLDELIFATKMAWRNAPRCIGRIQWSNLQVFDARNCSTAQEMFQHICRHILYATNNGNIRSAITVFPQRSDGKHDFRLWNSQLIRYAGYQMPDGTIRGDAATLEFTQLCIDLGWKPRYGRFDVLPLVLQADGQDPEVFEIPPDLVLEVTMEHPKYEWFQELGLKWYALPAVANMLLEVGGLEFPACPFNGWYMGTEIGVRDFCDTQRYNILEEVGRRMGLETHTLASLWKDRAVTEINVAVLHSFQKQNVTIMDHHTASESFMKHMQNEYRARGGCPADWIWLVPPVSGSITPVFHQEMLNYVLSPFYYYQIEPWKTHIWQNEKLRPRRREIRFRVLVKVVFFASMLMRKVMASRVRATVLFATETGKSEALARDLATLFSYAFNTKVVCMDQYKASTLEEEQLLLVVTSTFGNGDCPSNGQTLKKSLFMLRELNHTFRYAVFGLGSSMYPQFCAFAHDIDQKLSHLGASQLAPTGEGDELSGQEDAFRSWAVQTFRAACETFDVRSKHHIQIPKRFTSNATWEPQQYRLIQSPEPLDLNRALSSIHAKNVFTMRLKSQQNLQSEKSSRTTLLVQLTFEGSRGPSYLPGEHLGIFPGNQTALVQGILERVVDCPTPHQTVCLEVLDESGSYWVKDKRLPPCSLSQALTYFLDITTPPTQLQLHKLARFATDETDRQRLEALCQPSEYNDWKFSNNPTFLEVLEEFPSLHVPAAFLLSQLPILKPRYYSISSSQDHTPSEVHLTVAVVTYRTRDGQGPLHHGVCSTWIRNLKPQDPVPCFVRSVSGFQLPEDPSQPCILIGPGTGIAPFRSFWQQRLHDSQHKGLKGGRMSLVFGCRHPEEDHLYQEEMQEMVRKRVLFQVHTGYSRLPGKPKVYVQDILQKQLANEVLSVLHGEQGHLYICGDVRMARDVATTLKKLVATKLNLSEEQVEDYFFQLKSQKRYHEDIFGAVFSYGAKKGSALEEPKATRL
The arrangement: species or system Escherichia coli.

The target in assay [7] is Delta-type opioid receptor (Homo sapiens, UniProt P41143). Format: cell membranes, HEK293, Membrane. Conditions: hek293. Note: in other assays of this panel Not Active means under 50% inhibition at 10 µM.
Another assay deals with T3, Interstitial collagenase (Homo sapiens, UniProt P03956).
T3 sequence (P03956 whole entry): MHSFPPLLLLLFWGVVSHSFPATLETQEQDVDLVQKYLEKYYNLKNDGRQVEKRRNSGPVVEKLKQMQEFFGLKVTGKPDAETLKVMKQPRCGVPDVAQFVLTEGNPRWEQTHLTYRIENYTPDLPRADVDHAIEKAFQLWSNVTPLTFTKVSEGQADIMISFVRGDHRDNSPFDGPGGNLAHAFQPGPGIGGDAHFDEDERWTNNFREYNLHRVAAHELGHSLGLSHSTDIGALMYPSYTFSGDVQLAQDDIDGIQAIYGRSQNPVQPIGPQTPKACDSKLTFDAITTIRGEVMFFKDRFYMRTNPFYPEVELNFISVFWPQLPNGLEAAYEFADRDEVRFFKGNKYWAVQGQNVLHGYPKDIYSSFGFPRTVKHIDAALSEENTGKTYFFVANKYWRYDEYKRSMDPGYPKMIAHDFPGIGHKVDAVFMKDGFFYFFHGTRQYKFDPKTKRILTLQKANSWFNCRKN
Format: tissue-based, Rheumatoid synovial fibroblasts.

Assay [8] concerns the target Epidermal growth factor receptor (Homo sapiens, UniProt P00533). As to the kind of experiment: DRUGMATRIX: Protein Tyrosine Kinase, EGF Receptor enzyme inhibition (substrate: Poly(Glu:Tyr)). Format: cell-based, Insect cells. Conditions: Not Active = under 50% inhibition at 10 µM.
In assay [9] the target is Receptor tyrosine-protein kinase erbB-2 (Homo sapiens, UniProt P04626). Description: biochemical. The class given is cell-based, Insect cells.

5-hydroxytryptamine receptor 2B, sequence (P41595 whole entry): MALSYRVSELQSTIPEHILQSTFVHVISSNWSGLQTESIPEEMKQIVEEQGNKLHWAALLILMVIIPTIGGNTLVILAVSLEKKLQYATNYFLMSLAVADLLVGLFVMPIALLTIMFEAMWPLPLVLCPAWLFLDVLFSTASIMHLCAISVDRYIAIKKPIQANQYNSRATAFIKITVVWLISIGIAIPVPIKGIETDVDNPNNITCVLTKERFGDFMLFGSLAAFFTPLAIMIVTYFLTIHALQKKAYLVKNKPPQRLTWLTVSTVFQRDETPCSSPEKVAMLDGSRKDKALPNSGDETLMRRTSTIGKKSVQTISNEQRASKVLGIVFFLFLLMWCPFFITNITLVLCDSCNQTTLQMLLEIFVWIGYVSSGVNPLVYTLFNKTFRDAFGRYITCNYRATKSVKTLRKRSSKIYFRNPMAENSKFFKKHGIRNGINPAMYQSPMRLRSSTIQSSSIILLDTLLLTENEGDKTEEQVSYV
Epidermal growth factor receptor, sequence (P00533 whole entry): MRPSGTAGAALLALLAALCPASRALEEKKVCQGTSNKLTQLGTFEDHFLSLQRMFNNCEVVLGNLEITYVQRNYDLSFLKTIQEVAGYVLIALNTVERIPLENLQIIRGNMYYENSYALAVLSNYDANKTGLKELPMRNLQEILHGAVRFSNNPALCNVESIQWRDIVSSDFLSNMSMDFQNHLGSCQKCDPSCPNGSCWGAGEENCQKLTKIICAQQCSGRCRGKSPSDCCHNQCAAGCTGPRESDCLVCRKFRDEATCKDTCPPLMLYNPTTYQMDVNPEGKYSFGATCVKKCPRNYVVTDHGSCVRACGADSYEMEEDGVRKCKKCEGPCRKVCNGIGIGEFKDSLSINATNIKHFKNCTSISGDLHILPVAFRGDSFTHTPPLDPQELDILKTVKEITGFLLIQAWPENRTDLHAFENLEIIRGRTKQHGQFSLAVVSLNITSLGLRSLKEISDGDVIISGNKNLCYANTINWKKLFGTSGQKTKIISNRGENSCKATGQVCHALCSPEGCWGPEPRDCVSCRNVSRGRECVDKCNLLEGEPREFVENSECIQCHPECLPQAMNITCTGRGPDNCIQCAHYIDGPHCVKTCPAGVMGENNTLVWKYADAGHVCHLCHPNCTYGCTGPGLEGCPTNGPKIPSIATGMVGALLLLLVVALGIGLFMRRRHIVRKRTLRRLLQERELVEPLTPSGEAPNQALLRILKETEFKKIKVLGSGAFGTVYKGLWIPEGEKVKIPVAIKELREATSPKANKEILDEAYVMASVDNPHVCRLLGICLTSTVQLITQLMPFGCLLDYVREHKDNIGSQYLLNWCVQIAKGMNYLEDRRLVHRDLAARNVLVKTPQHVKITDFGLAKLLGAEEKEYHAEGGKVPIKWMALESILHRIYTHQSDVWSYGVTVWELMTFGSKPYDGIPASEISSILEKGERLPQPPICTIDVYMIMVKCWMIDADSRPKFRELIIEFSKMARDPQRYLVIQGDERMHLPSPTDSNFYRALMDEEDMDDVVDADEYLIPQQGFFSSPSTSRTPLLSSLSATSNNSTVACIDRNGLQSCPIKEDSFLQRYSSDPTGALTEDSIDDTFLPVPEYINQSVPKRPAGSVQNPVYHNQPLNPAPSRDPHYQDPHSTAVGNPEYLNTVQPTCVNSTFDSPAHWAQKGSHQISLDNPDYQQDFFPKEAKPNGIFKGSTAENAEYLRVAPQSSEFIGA
Beta-1 adrenergic receptor, sequence (P08588 whole entry): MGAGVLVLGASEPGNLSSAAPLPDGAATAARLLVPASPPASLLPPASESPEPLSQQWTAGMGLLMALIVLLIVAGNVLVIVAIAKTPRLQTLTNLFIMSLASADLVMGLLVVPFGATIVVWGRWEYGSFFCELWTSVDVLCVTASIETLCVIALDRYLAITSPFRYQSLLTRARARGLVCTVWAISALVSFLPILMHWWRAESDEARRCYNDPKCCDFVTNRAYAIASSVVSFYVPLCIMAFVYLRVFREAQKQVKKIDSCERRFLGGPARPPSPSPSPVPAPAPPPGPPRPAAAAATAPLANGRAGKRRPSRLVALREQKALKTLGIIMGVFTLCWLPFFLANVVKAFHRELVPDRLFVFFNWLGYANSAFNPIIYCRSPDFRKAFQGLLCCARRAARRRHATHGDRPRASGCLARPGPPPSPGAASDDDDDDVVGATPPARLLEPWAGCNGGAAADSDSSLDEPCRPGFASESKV
Delta-type opioid receptor, sequence (P41143 whole entry): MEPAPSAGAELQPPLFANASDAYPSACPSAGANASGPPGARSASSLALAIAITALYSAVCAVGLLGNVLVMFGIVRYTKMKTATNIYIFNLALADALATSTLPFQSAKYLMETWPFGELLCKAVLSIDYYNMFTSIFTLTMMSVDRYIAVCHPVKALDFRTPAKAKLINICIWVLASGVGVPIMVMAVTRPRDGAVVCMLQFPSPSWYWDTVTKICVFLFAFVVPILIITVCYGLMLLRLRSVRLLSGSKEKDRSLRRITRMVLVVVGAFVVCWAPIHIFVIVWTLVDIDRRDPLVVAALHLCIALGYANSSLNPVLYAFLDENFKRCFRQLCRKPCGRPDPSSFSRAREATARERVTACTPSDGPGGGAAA
Prostaglandin G/H synthase 1, sequence (P23219 whole entry): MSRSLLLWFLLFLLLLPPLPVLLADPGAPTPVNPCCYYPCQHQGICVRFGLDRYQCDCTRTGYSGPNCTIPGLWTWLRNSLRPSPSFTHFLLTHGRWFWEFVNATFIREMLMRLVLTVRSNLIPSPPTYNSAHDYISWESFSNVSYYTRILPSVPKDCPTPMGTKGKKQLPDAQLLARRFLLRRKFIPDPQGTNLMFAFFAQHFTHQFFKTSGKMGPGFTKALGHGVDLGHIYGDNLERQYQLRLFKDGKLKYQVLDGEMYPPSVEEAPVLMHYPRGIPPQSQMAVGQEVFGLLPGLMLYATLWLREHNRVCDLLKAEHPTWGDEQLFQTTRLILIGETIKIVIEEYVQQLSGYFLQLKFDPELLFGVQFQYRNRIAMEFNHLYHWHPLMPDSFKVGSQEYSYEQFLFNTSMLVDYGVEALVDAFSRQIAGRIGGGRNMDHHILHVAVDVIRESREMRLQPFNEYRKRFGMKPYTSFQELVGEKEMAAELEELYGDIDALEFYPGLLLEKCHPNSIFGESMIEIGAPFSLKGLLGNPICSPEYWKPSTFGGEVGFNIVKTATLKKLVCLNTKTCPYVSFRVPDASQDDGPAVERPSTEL

`COc1ccc2cc(CC(=O)O)ccc2c1`: the IC50 result in assay [1] is “Not Active”; in assay [2], “Not Active”; in assay [3] (cho-k1) it was “Not Active”; in [4] (read-out: IC50), 4.11 µM; against Glycine receptor it was “Not Active”; in assay [5] it was “Not Active”. Besides, the IC50 entry (in [6]; in assay [7]; against Interstitial collagenase; in assay [8] (insect cells); in assay [9] (insect cells)) was “Not Active” throughout. In [5], the Ki result is listed as “Not Active”.
Take `c1ccc2c(c1)cc1ccc3cccc4ccc2c1c34`: the IC50 result (in assay [1]; in assay [2]; in assay [3] (cho-k1); in [4] (platelet); at Glycine receptor; in [5]) was “Not Active” in each case. Also, the IC50 result is “Not Active” in assay [6]; “Not Active” in assay [7]; “Not Active” at Interstitial collagenase; “Not Active” in [8] (insect cells); 41.5 µM in assay [9] (read-out: IC50). In addition, in [5], the Ki result is listed as “Not Active”.
For the molecule `CC(/C=C1\SC(=S)N(CC(=O)O)C1=O)=C\c1ccccc1`, the IC50 entry (in [1]; in assay [2]; in assay [3] (cho-k1); in [4] (platelet); against Glycine receptor; in assay [5]) was “Not Active” throughout. For the same molecule, the IC50 result (in assay [6]; in assay [7]; on Interstitial collagenase; in assay [8] (insect cells); in assay [9] (insect cells)) was “Not Active” throughout. The Ki result in assay [5] was “Not Active”.
`Cc1[nH]cnc1CN1CCc2c(c3ccccc3n2C)C1=O` [ALOSETRON]: the IC50 entry (in assay [1]; in assay [2]; in [4] (platelet); against Glycine receptor; in assay [5]; in assay [6]) was “Not Active” in each case. Moreover, the concentration for half-maximal inhibition (IC50) result (in [7]; against Interstitial collagenase; in assay [8] (insect cells); in [9] (insect cells)) was “Not Active” each time. For the same molecule, in assay [5], the Ki entry is recorded as “Not Active”.
As for `Oc1c(Cl)cc(Cl)cc1Sc1cc(Cl)cc(Cl)c1O` [BITHIONOL], the IC50 result (in assay [1]; in [2]; in assay [4] (platelet); against Glycine receptor; in assay [5]; in assay [6]) was “Not Active” each time. The IC50 result in assay [7] is “Not Active”; on Interstitial collagenase, “Not Active”; in [8] (read-out: IC50), 0.614 µM; in assay [9] (read-out: IC50), 2.15 µM. For the same molecule, in assay [5], the Ki entry is “Not Active”.
Take `Cc1ccccc1N1CCN(CCc2nnc3n2CCCC3)CC1` [DAPIPRAZOLE]: the IC50 entry was “Not Active” in assay [2]; 1.06 µM in [3] (read-out: IC50); “Not Active” in [4] (platelet); “Not Active” on Glycine receptor; “Not Active” in assay [5]; “Not Active” in [6]. For the same molecule, the IC50 result (in assay [7]; against Interstitial collagenase; in assay [8] (insect cells); in assay [9] (insect cells)) was “Not Active” each time. Besides, the figures for the Ki in [3] (read-out: Ki) and in assay [5] were 0.672 µM and “Not Active”, respectively.
`CCc1cccc2c3c([nH]c12)C(CC)(CC(=O)O)OCC3` (configuration not stated) [ETODOLAC]: the IC50 entry (in assay [1]; in [2]; in [3] (cho-k1); at Glycine receptor; in assay [5]; in assay [6]) was “Not Active” in each case. Further, the IC50 result (in assay [7]; at Interstitial collagenase; in assay [8] (insect cells); in [9] (insect cells)) was “Not Active” each time. The Ki entry in [5] is given as “Not Active”.
On to `CN1C(C(=O)Nc2ccccn2)=C(O)c2ccccc2S1(=O)=O` [PIROXICAM], for which the IC50 entry (in assay [1]; in assay [2]; in assay [3] (cho-k1); against Glycine receptor; in assay [5]; in assay [6]) was “Not Active” each time. The IC50 entry (in [7]; against Interstitial collagenase; in assay [8] (insect cells); in assay [9] (insect cells)) was “Not Active” in each case. Further, the Ki result in [5] is given as “Not Active”.
With GOLD SODIUM THIOMALATE, the IC50 result (in [1]; in assay [2]; in assay [3] (cho-k1); in [4] (platelet); at Glycine receptor; in assay [5]) was “Not Active” in each case. The IC50 result (in assay [6]; in assay [7]; against Interstitial collagenase; in assay [9] (insect cells)) was “Not Active” each time. The Ki entry (in assay [1]; in assay [2]; in assay [3] (cho-k1); in [4] (platelet); at Glycine receptor; in [5]) was “Not Active” throughout. In addition, the Ki result (in assay [6]; in assay [7]; at Interstitial collagenase; in [9] (insect cells)) was “Not Active” each time.
